Measured values reported in paper PMC10532587, “An Investigation of Structure–Activity Relationships and Cell Death Mechanisms of the Marine Alkaloids Discorhabdins in Merkel Cell Carcinoma Cells” (Marine Drugs, 2023).
Like-named read-outs stand apart in the source and are kept apart here.

Experiments:
[1] = test system: MKL-1; assay: Cell survival by CellTiterGlo, VP-MCC line MKL-1; format: cell-based; settings: VP-MCC; for AUC (arbitrary units) MKL-1: area under the dose-response curve; for IC50: MKL-1, CellTiterGlo, normalized to DMSO, read-out: IC50 (nM) MKL-1
[2] = test system: HaCaT; assay: Cell survival by CellTiterGlo, control cells; format: cell-based, human; settings: for AUC (arbitrary units) HaCaT: area under the dose-response curve, control cells; for IC50: Homo sapiens, HaCaT
[3] = test system: MKL-2; assay: Cell survival by CellTiterGlo, VP-MCC line MKL-2; format: cell-based; settings: for AUC (arbitrary units) MKL-2: area under the dose-response curve; for IC50: CellTiterGlo, normalized to DMSO
[4] = test system: MCC26; assay: Cell survival by CellTiterGlo, VN-MCC line MCC26; format: cell-based; settings: for AUC (arbitrary units) MCC26: area under the dose-response curve; for IC50: CellTiterGlo, normalized to DMSO
[5] = test system: control (HaCaT) and Merkel cell carcinoma cell lines; assay: Cell survival by CellTiterGlo, all seven cell lines; format: cell-based; settings: for IC50: Homo sapiens, HaCaT; for activity on cell viability, in words: MCC and control cell lines
Experimental: (§1) Three methods were employed for assessment of MCC and control cell survival/viability after discorhabdin treatment, two metabolic assays and a cell permeability assay. For all three methods, cells were plated in 384-well plates at 2500 cells/well and treated with various concentrations of discorhabdins for various time periods. CellTiterGlo^TM (Promega, Madison, WI, USA) measures cellular ATP content and was used to estimate potency of discorhabdins in cell viability assays as previously described. Continuous monitoring of metabolic activity was accomplished using a cellular reducing potential luminescence assay, the RealTime-Glo^TM MT Cell Viability Assay (Promega, Madison, WI, USA) according to manufacturer’s instructions. Loss of cell plasma membrane integrity was assessed using a cell-impermeant molecule that becomes fluorescent upon binding DNA [82] in parallel with apoptosis detection per manufacturer’s instructions (RealTimeGlo^TM Annexin V Apoptosis and Necrosis Assay-Promega). Two additional assays of apoptotic cell death were also used. Caspase activation in response to treatment of MCC cells by discorhabdins or bortezomib (as a positive control) was measured using the CaspaseGlo® 3/7 Assay (Promega, Madison, WI, USA) according to the manufacturer’s instructions at multiple time points. Inhibition of apoptotic cell death was investigated using pre-treatment of cells with for 1 h with the pan-caspase inhibitor Z-VAD-FMK (Enzo Life Sciences, Farmingdale, NY, USA) followed by treatment with discorhabdins or bortezomib and estimation of cell viability as outlined above.
(§2) In order to compare responses among all of the discorhabdins and cell lines (98 combinations), dose–response curves were generated using identical discorhabdin dilution series. GraphPad Prism 8 (San Diego, CA, USA) software was utilized to graph dose–response data and to calculate IC50 values and area under the dose–response curves (AUC) along with 95% confidence interval estimates using four-parameter logistic nonlinear regression analysis. For further analysis and comparisons, AUC for each cell line/discorhabdin pair was visualized in a heatmap generated in R version 1.3.1073 (R Core Team (2013). R: A language and environment for statistical computing. R Foundation for Statistical Computing, Vienna, Austria, http://www.R-project.org/ (accessed on 12 January 2023).
Figure S39: Activity of discorhabdins against M CC cell lines.
The indicated discorh abd ins were ass essed for th eir ability to affect surviv al of control (H aCaT) and Merkel cell carcino ma cell lines (VN-MCC: MCC13, MCC26, UISO and VP -MCC: MKL-1, MKL-2, Wag a). Cells were plat ed at 2500 cells/well and compounds the next day. Cell survival was estimated by CellTiterGlo (normalized to untreated (DMSO) cells on the same plate). Structures w ere o btained from the supplier and/or the PubChem database or as described in the text. Number in bold in ( ) refers to structures in Figure 1 in the text. Curves were plotted and IC50 values and 95% confidence interval calculated by GraphPad software. […]

[6] = test system: MCC13; assay: Cell survival by CellTiterGlo, VN-MCC line MCC13; format: cell-based; settings: for AUC (arbitrary units) MCC13: area under the dose-response curve; for IC50: CellTiterGlo, normalized to DMSO
[7] = test system: UISO; assay: Cell survival by CellTiterGlo, VN-MCC line UISO; format: cell-based; settings: for AUC (arbitrary units) UISO: area under the dose-response curve; for IC50: CellTiterGlo, normalized to DMSO
[8] = test system: Waga; assay: Cell survival by CellTiterGlo, VP-MCC line Waga; format: cell-based; settings: for AUC (arbitrary units) WaGa: area under the dose-response curve; for IC50: CellTiterGlo, normalized to DMSO
[9] = test system: MCC cell lines; assay: Cell survival by CellTiterGlo, MCC cell lines together; format: cell-based; settings: average over MCC cell lines
Experimental: as §1, §2

[10] = test system: VP-MCC cell lines (MKL-1, MKL-2, and Waga); assay: Selectivity VP-MCC versus control cells (average AUC); format: cell-based
Excerpt: as §2
(§3) Figure S41: Discorhabdi nselectivity
(§4) Discorhabdin selectivity for VP -MCC and VN- MCCcells was estimated by comparison of activity (average AUC) for each dis corhabdin against VP -MCC (panel A) or VN- MCC (panel B) cell lines compared to control cells . Discorhabdins were sort ed by selectivity from most to least selective. - fold dif fer ence = (av e VN -MCC or VP -MCC AUC/ control AUC). Error bars […]
(§5) (1 picture or pasted object on this page, not shown here)

[11] = test system: VN-MCC cell lines (MCC13, MCC26, and UISO); assay: Selectivity VN-MCC versus control cells (average AUC); format: cell-based
Excerpt: as §2, §3, §4, §5

[12] = control skin cell line, CellTiterGlo, normalized to DMSO, read-out: IC50 (nM) HaCaT
[13] = read-out: IC50 for control cells

Cn1cnc(S[C@H]2[C@H]3C(=O)C=C4S[C@H]5C[C@]42C2=C(N5)C(=O)c4[nH]cc5c4C2=[N+]3CC5)c1C[C@H](N)C(=O)O (relative stereo) [Compound 14, (−)-(1R,2R,6R,8S,7′S*) discorhabdin H]
AUC (arbitrary units) MKL-1 [1]: 901.7 arbitrary units | AUC (arbitrary units) HaCaT [2]: 992.5 arbitrary units | AUC (arbitrary units) MKL-2 [3]: 946.5 arbitrary units | AUC (arbitrary units) MCC26 [4]: 947 arbitrary units | IC50 ([5]; CellTiterGlo, 10 µM highest concentration tested, read-out: IC50, all cell lines): > 10 µM | IC50 ([5]; essentially inactive compounds, read-out: average IC50 against all the cell lines): > 5 µM | AUC (arbitrary units) MCC13 [6]: 950.6 arbitrary units | AUC (arbitrary units) UISO [7]: 952.3 arbitrary units | AUC (arbitrary units) WaGa [8]: 930 arbitrary units

O=C1CC2SC3CC2(C=C1Br)C1=C(N3)C(=O)c2[nH]cc3c2C1=NCC3 (single isomer, unassigned; (+)) [Compound 1]
IC50 [1]: 29 nM | AUC (arbitrary units) MKL-1 [1]: 4.944 arbitrary units | IC50 [2, 12]: 273 nM | IC50 [2, 13]: ≤ 1000 nM | AUC (arbitrary units) HaCaT [2]: 29.87 arbitrary units | IC50 [3]: 48 nM | AUC (arbitrary units) MKL-2 [3]: 6.99 arbitrary units | IC50 [4]: 197 nM | AUC (arbitrary units) MCC26 [4]: 88.19 arbitrary units | activity on cell viability, in words [5]: most generally toxic compound tested | averaged potency (IC50) across all MCC cell lines tested [9]: sub-micromolar | IC50 [6]: 64 nM | AUC (arbitrary units) MCC13 [6]: 8.589 arbitrary units | IC50 [7]: 54 nM | AUC (arbitrary units) UISO [7]: 7.172 arbitrary units | IC50 [8]: 57 nM | AUC (arbitrary units) WaGa [8]: 6.873 arbitrary units

O=C1C=C2SC3CC2(C=C1Br)C1=C(N3)C(=O)c2[nH]cc3c2C1=NCC3 (single isomer, unassigned; (-)) [(-)B]
AUC (arbitrary units) MKL-1 [1]: 1.929 arbitrary units | AUC (arbitrary units) HaCaT [2]: 114.3 arbitrary units | AUC (arbitrary units) MKL-2 [3]: 9.451 arbitrary units | AUC (arbitrary units) MCC26 [4]: 80.18 arbitrary units | activity on cell viability, in words [5]: comparable activity against MCC and control cell lines | AUC (arbitrary units) MCC13 [6]: 41.45 arbitrary units | AUC (arbitrary units) UISO [7]: 33.26 arbitrary units | AUC (arbitrary units) WaGa [8]: 5.814 arbitrary units

O=C1C=C[C@@]23C[C@@H](NC4=C2C2=NCCc5c[nH]c(c52)C4=O)SC3=C1 [Compound 4, (+)-(6S,8S) discorhabdin G*/I]
IC50 [1]: 481 nM | AUC (arbitrary units) MKL-1 [1]: 54.17 arbitrary units | IC50 [2, 12]: 2450 nM | AUC (arbitrary units) HaCaT [2]: 267.7 arbitrary units | IC50 [3]: 879 nM | AUC (arbitrary units) MKL-2 [3]: 108.8 arbitrary units | IC50 [4]: 1280 nM | AUC (arbitrary units) MCC26 [4]: 140 arbitrary units | averaged potency (IC50) across all MCC cell lines tested [9]: sub-micromolar | IC50 [6]: 940 nM | AUC (arbitrary units) MCC13 [6]: 124.8 arbitrary units | IC50 [7]: 921 nM | AUC (arbitrary units) UISO [7]: 121.7 arbitrary units | IC50 [8]: 859 nM | AUC (arbitrary units) WaGa [8]: 105.3 arbitrary units

CSC1=CC(=O)C(Br)=C[C@]12C=CNC1=C2C2=NCCc3c[nH]c(c32)C1=O [Compound 8, (+)-(6S) N-13-demethyldiscorhabdin U]
IC50 [1]: 22.7 nM | AUC (arbitrary units) MKL-1 [1]: 5.221 arbitrary units | IC50 [2, 12]: 1010 nM | IC50 [2, 13]: ≤ 1000 nM | AUC (arbitrary units) HaCaT [2]: 123.3 arbitrary units | IC50 [4]: 749 nM | AUC (arbitrary units) MCC26 [4]: 80.16 arbitrary units | increased activity against VP-MCC compared to the control [10]: > 10 fold | activity on cell viability, in words [5]: one of the most active compounds tested | averaged potency (IC50) across all MCC cell lines tested [9]: sub-micromolar | IC50 [6]: 299 nM | AUC (arbitrary units) MCC13 [6]: 48.65 arbitrary units | IC50 [7]: 251 nM | AUC (arbitrary units) UISO [7]: 32.84 arbitrary units | IC50 [8]: 86.9 nM | AUC (arbitrary units) WaGa [8]: 14.83 arbitrary units

O=C1C=C(SSC2=CC(=O)C(Br)=C[C@]23C=CNC2=C3C3=NCCc4c[nH]c(c43)C2=O)[C@@]2(C=CNC3=C2C2=NCCc4c[nH]c(c42)C3=O)C=C1Br [Compound 10, (−)-(6S,6′S) discorhabdin W]
IC50 [1]: 136 nM | AUC (arbitrary units) MKL-1 [1]: 18.4 arbitrary units | IC50 [2, 12]: 4860 nM | AUC (arbitrary units) HaCaT [2]: 538.3 arbitrary units | IC50 [3]: 387 nM | AUC (arbitrary units) MKL-2 [3]: 55.04 arbitrary units | IC50 [4]: 2560 nM | AUC (arbitrary units) MCC26 [4]: 290.1 arbitrary units | increased activity against VP-MCC compared to the control [10]: > 10 fold | IC50 [6]: 1380 nM | AUC (arbitrary units) MCC13 [6]: 184.2 arbitrary units | IC50 [7]: 1240 nM | AUC (arbitrary units) UISO [7]: 162.4 arbitrary units | IC50 [8]: 307 nM | AUC (arbitrary units) WaGa [8]: 40.16 arbitrary units

Cc1[nH]c2c3c1CCN=C3C1=C(NCCC13C=C(Br)C(=O)C(Br)=C3)C2=O [Compound 18, 14-methyldiscorhabdin C]
IC50 [1]: 175 nM | AUC (arbitrary units) MKL-1 [1]: 20.95 arbitrary units | IC50 [2, 12]: 5380 nM | AUC (arbitrary units) HaCaT [2]: 584.7 arbitrary units | IC50 [4]: 3060 nM | AUC (arbitrary units) MCC26 [4]: 329.4 arbitrary units | increased activity against VP-MCC compared to the control [10]: > 10 fold | IC50 [6]: 1450 nM | AUC (arbitrary units) MCC13 [6]: 159.8 arbitrary units | increased activity against VN-MCC compared to control cells (fold difference) [11]: > 3 fold | IC50 [7]: 670 nM | AUC (arbitrary units) UISO [7]: 74.19 arbitrary units | IC50 [8]: 430 nM | AUC (arbitrary units) WaGa [8]: 51.75 arbitrary units

O=C1C(Br)=CC2(C=C1Br)CCNC1=C2C2=NCCc3c(Br)[nH]c(c32)C1=O [Compound 19, 14-bromodiscorhabdin C]
IC50 [1]: 37.8 nM | AUC (arbitrary units) MKL-1 [1]: 7.189 arbitrary units | IC50 [2, 12]: 3740 nM | AUC (arbitrary units) HaCaT [2]: 441.7 arbitrary units | IC50 [4]: 893 nM | AUC (arbitrary units) MCC26 [4]: 120.6 arbitrary units | increased activity against VP-MCC compared to the control [10]: > 10 fold | averaged potency (IC50) across all MCC cell lines tested [9]: sub-micromolar | IC50 [6]: 511 nM | AUC (arbitrary units) MCC13 [6]: 90.22 arbitrary units | increased activity against VN-MCC compared to control cells (fold difference) [11]: > 3 fold | IC50 [7]: 412 nM | AUC (arbitrary units) UISO [7]: 88.25 arbitrary units | IC50 [8]: 249 nM | AUC (arbitrary units) WaGa [8]: 50.51 arbitrary units

O=C1C=C[C@]2(C=C1Br)CCNC1=C2C2=NCCc3c[nH]c(c32)C1=O [Compound 22, (+)-(6S)-discorhabdin E]
IC50 [1]: 125 nM | AUC (arbitrary units) MKL-1 [1]: 14.16 arbitrary units | IC50 [2, 12]: 3010 nM | AUC (arbitrary units) HaCaT [2]: 328.3 arbitrary units | IC50 [4]: 2000 nM | AUC (arbitrary units) MCC26 [4]: 226.2 arbitrary units | increased activity against VP-MCC compared to the control [10]: > 10 fold | averaged potency (IC50) across all MCC cell lines tested [9]: sub-micromolar | IC50 [6]: 888 nM | AUC (arbitrary units) MCC13 [6]: 106.9 arbitrary units | IC50 [7]: 459 nM | AUC (arbitrary units) UISO [7]: 53.3 arbitrary units | IC50 [8]: 332 nM | AUC (arbitrary units) WaGa [8]: 36.75 arbitrary units
